The subject of one assay is U87MG tumour cells. Description: Test of in vitro proliferation of U87MG tumour cells. The class given is cell-based. Conditions: Homo sapiens, U-87 MG, 72 h. As for the experimental part:
Model 4: Test of in vitro Proliferation of U87MG Tumour Cells.
The cell growth is determined with the reagent CellTiter 96 AQueous One Solution Cell Proliferation Assay from Promega (Cat. No. G3581).

Another assay has as its system Akt-pS473 in U87MG cells. The settings on record: Homo sapiens, U-87 MG.
A further assay addresses PI3Kα (p110α/p85α) (Homo sapiens (Human), UniProt P42336). Briefly: PI3Kα enzymatic test by measuring the consumption of ATP. The class given is biochemical. The gist of the method:
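p110α/p85α (1.7 μg/ml) with 50 μM PIP2 and 2 μM ATP in pH 7.5 Tris buffer with EGTA, MgCl2, Chaps, DTT; reaction 90 min. Remaining ATP measured by luciferin/luciferase luminescence; IC50 from threefold serial dilutions spanning at least 10 000-fold.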

For assay [1], the target named is mTOR (human recombinant aa mTOR 1360-2549) (Homo sapiens (Human), UniProt P42345). Description: mTOR enzymatic test by TR-FRET (phosphorylation of GFP-4EBP1). The class given is biochemical. The essentials:
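TR-FRET detection of GFP-4EBP1 phosphorylation by a terbium-labelled anti-phospho-Thr46 antibody. Kinase reaction ran 30 min at room temperature, was quenched with EDTA (10 mM final) plus Tb-antibody (2 nM final) and left 60 min. Emission at 520 and 490 nm after 340 nm excitation, reported as the 520/490 ratio.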
In general terms: TR-FRET usually uses a lanthanide donor and a delayed reading to cut background.

Where [2] appears, read: U87MG cells, 72 hours, read-out: U87 Cell Proliferation IC50.
Setting [3] is: read-out: U87 Akt-pS473 % Inhibition or IC50, nM (IC50), U87MG cells.

Results on 16 compounds are retold here after US9120812B2, “Pyrimidooxazocine derivatives as mTOR-inhibitors” (SANOFI, priority 2012, dated 2015).

SMILES strings stand for the structures. Like-named read-outs stand apart in the source and are kept apart here. Where only a bound is given, the exact number is not on record here.

PI3Kα (p110α/p85α), sequence (P42336 whole entry): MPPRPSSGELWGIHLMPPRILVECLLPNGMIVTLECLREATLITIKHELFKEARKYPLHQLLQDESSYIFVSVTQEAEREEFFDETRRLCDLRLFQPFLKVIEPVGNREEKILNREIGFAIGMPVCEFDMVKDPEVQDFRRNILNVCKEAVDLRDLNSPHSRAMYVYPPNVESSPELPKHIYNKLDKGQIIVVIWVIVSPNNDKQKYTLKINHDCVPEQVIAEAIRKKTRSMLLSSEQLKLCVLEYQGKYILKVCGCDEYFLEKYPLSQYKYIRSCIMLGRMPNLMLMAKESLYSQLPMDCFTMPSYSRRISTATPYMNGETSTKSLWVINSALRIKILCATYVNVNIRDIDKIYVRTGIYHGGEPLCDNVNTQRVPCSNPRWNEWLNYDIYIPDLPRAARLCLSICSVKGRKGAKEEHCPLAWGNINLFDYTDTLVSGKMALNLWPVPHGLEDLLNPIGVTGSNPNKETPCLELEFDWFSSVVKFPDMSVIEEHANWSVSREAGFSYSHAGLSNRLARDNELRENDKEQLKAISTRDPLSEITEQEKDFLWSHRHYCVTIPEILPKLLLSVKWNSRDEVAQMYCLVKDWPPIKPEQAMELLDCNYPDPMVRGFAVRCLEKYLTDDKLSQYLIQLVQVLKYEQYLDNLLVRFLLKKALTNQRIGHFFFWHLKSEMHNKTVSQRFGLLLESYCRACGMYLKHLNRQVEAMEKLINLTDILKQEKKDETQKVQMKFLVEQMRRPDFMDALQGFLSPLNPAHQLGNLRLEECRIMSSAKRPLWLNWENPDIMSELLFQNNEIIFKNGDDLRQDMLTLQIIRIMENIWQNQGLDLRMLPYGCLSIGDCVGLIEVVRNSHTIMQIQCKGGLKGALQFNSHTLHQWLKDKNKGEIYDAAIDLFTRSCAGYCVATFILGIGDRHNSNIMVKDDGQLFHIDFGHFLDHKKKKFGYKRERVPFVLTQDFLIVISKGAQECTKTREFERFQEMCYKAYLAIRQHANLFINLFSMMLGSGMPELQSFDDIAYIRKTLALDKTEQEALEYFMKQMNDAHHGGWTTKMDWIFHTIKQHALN
PI3Kα (p110α/p85α), sequence (P27986 whole entry partner): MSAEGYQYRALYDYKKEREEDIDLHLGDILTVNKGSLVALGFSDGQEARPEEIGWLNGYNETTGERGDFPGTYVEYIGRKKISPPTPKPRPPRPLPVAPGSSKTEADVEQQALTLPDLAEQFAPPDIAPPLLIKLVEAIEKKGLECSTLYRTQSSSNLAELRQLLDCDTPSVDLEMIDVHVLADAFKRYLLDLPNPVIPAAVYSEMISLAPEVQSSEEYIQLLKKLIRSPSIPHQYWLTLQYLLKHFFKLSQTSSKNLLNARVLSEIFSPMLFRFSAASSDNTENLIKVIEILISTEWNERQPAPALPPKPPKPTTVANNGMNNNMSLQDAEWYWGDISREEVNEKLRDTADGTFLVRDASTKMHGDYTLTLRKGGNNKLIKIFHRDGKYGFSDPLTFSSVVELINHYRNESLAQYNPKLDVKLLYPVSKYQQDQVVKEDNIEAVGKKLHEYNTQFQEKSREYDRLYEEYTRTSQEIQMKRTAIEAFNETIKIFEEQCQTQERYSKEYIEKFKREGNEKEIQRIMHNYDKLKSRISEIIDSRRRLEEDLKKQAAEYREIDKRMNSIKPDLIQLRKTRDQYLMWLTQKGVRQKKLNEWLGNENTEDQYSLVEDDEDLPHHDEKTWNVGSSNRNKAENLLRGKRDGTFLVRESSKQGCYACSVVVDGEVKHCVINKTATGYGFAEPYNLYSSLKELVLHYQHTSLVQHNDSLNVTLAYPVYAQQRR
mTOR (human recombinant aa mTOR 1360-2549), sequence (P42345 1360-2549): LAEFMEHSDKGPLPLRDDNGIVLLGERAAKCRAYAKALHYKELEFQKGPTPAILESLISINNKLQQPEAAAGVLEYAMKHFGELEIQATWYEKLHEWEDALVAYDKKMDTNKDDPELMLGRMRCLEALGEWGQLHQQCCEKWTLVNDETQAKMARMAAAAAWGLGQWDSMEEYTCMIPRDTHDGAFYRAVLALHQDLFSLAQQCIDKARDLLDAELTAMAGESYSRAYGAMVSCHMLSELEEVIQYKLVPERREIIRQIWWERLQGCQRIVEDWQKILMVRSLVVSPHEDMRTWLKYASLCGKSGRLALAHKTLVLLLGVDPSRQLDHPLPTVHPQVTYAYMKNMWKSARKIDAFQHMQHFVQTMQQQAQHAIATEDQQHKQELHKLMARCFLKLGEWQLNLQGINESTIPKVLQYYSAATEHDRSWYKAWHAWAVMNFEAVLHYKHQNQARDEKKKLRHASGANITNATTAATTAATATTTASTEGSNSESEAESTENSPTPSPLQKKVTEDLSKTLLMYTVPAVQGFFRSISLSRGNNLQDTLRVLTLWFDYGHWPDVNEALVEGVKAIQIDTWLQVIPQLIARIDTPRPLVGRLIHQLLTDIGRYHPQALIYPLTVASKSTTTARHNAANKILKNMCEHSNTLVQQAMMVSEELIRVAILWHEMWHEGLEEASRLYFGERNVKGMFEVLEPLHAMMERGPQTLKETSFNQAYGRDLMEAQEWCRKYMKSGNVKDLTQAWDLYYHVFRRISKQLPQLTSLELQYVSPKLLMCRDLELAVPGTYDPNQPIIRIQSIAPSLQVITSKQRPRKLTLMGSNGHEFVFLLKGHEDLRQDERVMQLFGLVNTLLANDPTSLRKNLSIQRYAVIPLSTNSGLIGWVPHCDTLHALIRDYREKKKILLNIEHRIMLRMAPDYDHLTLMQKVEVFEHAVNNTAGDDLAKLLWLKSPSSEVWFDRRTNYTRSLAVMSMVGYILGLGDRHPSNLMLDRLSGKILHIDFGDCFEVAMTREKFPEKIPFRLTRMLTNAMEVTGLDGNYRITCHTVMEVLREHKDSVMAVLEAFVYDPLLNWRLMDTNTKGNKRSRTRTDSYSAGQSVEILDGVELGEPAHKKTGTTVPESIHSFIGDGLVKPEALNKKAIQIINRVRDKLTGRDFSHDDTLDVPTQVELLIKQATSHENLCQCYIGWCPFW

For the compound `CCN1CC(C)(C)Oc2nc(N3CCOC[C@@H]3C)nc(-c3ccc(NC(=O)Nc4cnc(N5CCOCC5)cn4)cc3)c2C1=O` [Example 232, 1-{4-[6-Ethyl-8,8-dimethyl-2-((S)-3-methylmorpholin-4-yl)-5-oxo-5,6,7,8-tetrahydro-9-oxa-1,3,6-triazabenzocyclohepten-4-yl]phenyl}-3-(5-morpholin-4-ylpyrazin-2-yl)urea], the figures for the IC50 (in the assay with U87MG tumour cells (setting [2]); in the assay with Akt-pS473 in U87MG cells (setting [3]); in assay [1]) were 95 nM, 26 nM and 0.032 µM, respectively. At PI3Kα (p110α/p85α), the “PI3Ka IC50” value was 5.63 µM.
The matching figures for `CCN1CC(C)(C)Oc2nc(N3CC4CCC(C3)O4)nc(-c3ccc(NC(=O)Nc4ccc(OC)nn4)cc3)c2C1=O` [Example 146, 1-{4-[6-Ethyl-8,8-dimethyl-2-(8-oxa-3-azabicyclo[3.2.1]oct-3-yl)-5-oxo-5,6,7,8-tetrahydro-9-oxa-1,3,6-triazabenzocyclohepten-4-yl]phenyl}-3-(6-methoxypyridazin-3-yl)urea]: 441 nM, 82 nM, 0.035 µM and over 10 µM.
The like results for `C[C@@H](CO)OC(=O)Nc1ccc(-c2nc(N3CC4CCC(C3)O4)nc3c2C(=O)N(C)CC(C)(C)O3)cc1` [Example 238, {4-[6,8,8-Trimethyl-2-(8-oxa-3-azabicyclo[3.2.1]oct-3-yl)-5-oxo-5,6,7,8-tetrahydro-9-oxa-1,3,6-triazabenzocyclohepten-4-yl]phenyl}carbamic acid (S)-2-hydroxy-1-methylethyl ester] were, in that order, 1700 nM, over 1000 nM, 0.678 µM and over 10 µM.
The like results for `CCN1CC(C)(C)Oc2nc(N3CCOC[C@@H]3C)nc(-c3ccc(NC(=O)Nc4cnc(C)cn4)c(F)c3)c2C1=O` [Example 167, 1-{4-[6-Ethyl-8,8-dimethyl-2-((S)-3-methylmorpholin-4-yl)-5-oxo-5,6,7,8-tetrahydro-9-oxa-1,3,6-triazabenzocyclohepten-4-yl]-2-fluorophenyl}-3-(5-methylpyrazin-2-yl)urea] were, in that order, 500 nM, 158 nM, 0.062 µM and 3.52 µM.
Regarding `CCN1CC(C)(C)Oc2nc(N3C4CCC3COC4)nc(-c3ccc(NC(=O)OCCO)cc3)c2C1=O` [Example 65, {4-[6-Ethyl-8,8-dimethyl-2-(3-oxa-8-azabicyclo[3.2.1]oct-8-yl)-5-oxo-5,6,7,8-tetrahydro-9-oxa-1,3,6-triazabenzocyclohepten-4-yl]phenyl}carbamic acid 2-hydroxyethyl ester], the IC50 with U87MG tumour cells (setting [2]) was determined as 257 nM; in the assay with Akt-pS473 in U87MG cells (setting [3]), 27 nM; in assay [1], 0.027 µM. The “PI3Ka IC50” value at PI3Kα (p110α/p85α) worked out at 22.4 µM.
The matching figures for `CNC(=O)Nc1ccc(-c2nc(N3CC4CCC(C3)O4)nc3c2C(=O)N(CCOC)CC(C)(C)O3)cc1F` [Example 210, 1-{2-Fluoro-4-[6-(2-methoxyethyl)-8,8-dimethyl-2-(8-oxa-3-azabicyclo[3.2.1]oct-3-yl)-5-oxo-5,6,7,8-tetrahydro-9-oxa-1,3,6-triazabenzocyclohepten-4-yl]phenyl}-3-methylurea]: 625 nM, 174 nM, 0.041 µM and over 10 µM.
The matching figures for `CCN1CC(C)(C)Oc2nc(N3CC4CCC(C3)O4)nc(-c3ccc(NC(=O)Nc4ccncc4)cc3F)c2C1=O` [Example 71, 1-{4-[6-Ethyl-8,8-dimethyl-2-(8-oxa-3-azabicyclo[3.2.1]oct-3-yl)-5-oxo-5,6,7,8-tetrahydro-9-oxa-1,3,6-triazabenzocyclohepten-4-yl]-3-fluorophenyl}-3-pyridin-4-ylurea]: 209 nM, 59 nM, 0.021 µM and over 10 µM.
As for `CN1CC(C)(C)Oc2nc(N3CC4CCC(C3)O4)nc(-c3ccc(NC(=O)Nc4ccccn4)cc3)c2C1=O` [Example 39, 1-Pyridin-2-yl-3-{4-[6,8,8-trimethyl-2-(8-oxa-3-azabicyclo[3.2.1]oct-3-yl)-5-oxo-5,6,7,8-tetrahydro-9-oxa-1,3,6-triazabenzocyclohepten-4-yl]phenyl}urea], the results for the IC50 (in the assay with U87MG tumour cells (setting [2]); with Akt-pS473 in U87MG cells (setting [3]); in assay [1]) were 207 nM, 34 nM and 0.026 µM, respectively. At PI3Kα (p110α/p85α), the “PI3Ka IC50” value was 5.87 µM.
The matching figures for `CCN1CC(C)(C)Oc2nc(N3CCOC[C@@H]3C)nc(-c3ccc(NC(=O)Nc4ccc(N5CC6CCC(C5)O6)nc4)c(F)c3)c2C1=O` [Example 258, 1-{4-[6-Ethyl-8,8-dimethyl-2-((S)-3-methylmorpholin-4-yl)-5-oxo-5,6,7,8-tetrahydro-9-oxa-1,3,6-triazabenzocyclohepten-4-yl]-2-fluorophenyl}-3-[6-(8-oxa-3-azabicyclo[3.2.1]oct-3-yl)pyridin-3-yl]urea]: 125 nM, 20 nM, 0.053 µM and 2.94 µM.
Regarding `CCN1CC(C)(C)Oc2nc(N3CCOC[C@@H]3C)nc(-c3ccc(NC(=O)Oc4cccc(OC)c4)cc3)c2C1=O` [Example 193, {4-[6-Ethyl-8,8-dimethyl-2-((S)-3-methylmorpholin-4-yl)-5-oxo-5,6,7,8-tetrahydro-9-oxa-1,3,6-triazabenzocyclohepten-4-yl]phenyl}carbamic acid 3-methoxyphenyl ester], the IC50 in the assay on U87MG tumour cells (read-out: U87 Cell Proliferation IC50, nM) is 4660 nM; in the assay on Akt-pS473 in U87MG cells (read-out: U87 Akt-pS473 % Inhibition or IC50, nM (IC50)), over 1000 nM; in assay [1], 0.97 µM. In addition, the “PI3Ka IC50” value at PI3Kα (p110α/p85α) was determined as 9.44 µM.
On to `CCN1CC(C)(C)Oc2nc(N3CC4CCC(C3)O4)nc(-c3ccc(NC(=O)Nc4ccccn4)cc3)c2C1=O` [Example 33, 1-{4-[6-Ethyl-8,8-dimethyl-2-(8-oxa-3-azabicyclo[3.2.1]oct-3-yl)-5-oxo-5,6,7,8-tetrahydro-9-oxa-1,3,6-triazabenzocyclohepten-4-yl]phenyl}-3-pyridin-2-ylurea], for which the IC50 in the assay on U87MG tumour cells (setting [2]) worked out at 226 nM; in the assay on Akt-pS473 in U87MG cells (setting [3]), 42 nM; in assay [1], 0.024 µM. Besides, the “PI3Ka IC50” value on PI3Kα (p110α/p85α) was found to be 9.24 µM.
The like results for `CCN1CC(C)(C)Oc2nc(N3CCOC[C@@H]3C)nc(-c3ccc(NC(=O)Nc4ccc(N5C[C@@H]6C[C@H]5CO6)nc4)c(F)c3)c2C1=O` [Example 252, 1-{4-[6-Ethyl-8,8-dimethyl-2-((S)-3-methylmorpholin-4-yl)-5-oxo-5,6,7,8-tetrahydro-9-oxa-1,3,6-triazabenzocyclohepten-4-yl]-2-fluorophenyl}-3-[(1S,4S)-6-(2-oxa-5-azabicyclo[2.2.1]hept-5-yl)pyridin-3-yl]urea] were, in that order, 282 nM, 48 nM, 0.068 µM and 1.36 µM.
`CCN1CC(C)(C)Oc2nc(N3CC4CCC(C3)O4)nc(-c3ccc(NC(=O)Nc4ccc(C#N)nc4)c(F)c3)c2C1=O` [Example 247, 1-(6-Cyanopyridin-3-yl)-3-{4-[6-ethyl-8,8-dimethyl-2-(8-oxa-3-azabicyclo[3.2.1]oct-3-yl)-5-oxo-5,6,7,8-tetrahydro-9-oxa-1,3,6-triazabenzocyclohepten-4-yl]-2-fluorophenyl}urea]: the IC50 with U87MG tumour cells (setting [2]) is 62 nM; with Akt-pS473 in U87MG cells (setting [3]), 8 nM; in assay [1], 0.026 µM. The “PI3Ka IC50” value on PI3Kα (p110α/p85α) was 7.2 µM.
The matching figures for `CCN1CC(C)(C)Oc2nc(N3CC4CCC(C3)O4)nc(-c3ccc(NC(=O)Nc4ccc(N5CCN(S(C)(=O)=O)CC5)cc4)c(F)c3)c2C1=O` [Example 235, 1-{4-[6-Ethyl-8,8-dimethyl-2-(8-oxa-3-azabicyclo[3.2.1]oct-3-yl)-5-oxo-5,6,7,8-tetrahydro-9-oxa-1,3,6-triazabenzocyclohepten-4-yl]-2-fluorophenyl}-3-[4-(4-methanesulfonylpiperazin-1-yl)phenyl]urea]: 29 nM, 10 nM, 0.089 µM and over 7.2 µM.
As to `COc1ccc(NC(=O)Nc2ccc(-c3nc(N4C5CCC4COC5)nc4c3C(=O)N(C)CC(C)(C)O4)cc2)nc1` [Example 49, 1-(5-Methoxypyridin-2-yl)-3-{4-[6,8,8-trimethyl-2-(3-oxa-8-azabicyclo[3.2.1]oct-8-yl)-5-oxo-5,6,7,8-tetrahydro-9-oxa-1,3,6-triazabenzocyclohepten-4-yl]phenyl}urea], the figures for the IC50 (in the assay with U87MG tumour cells (setting [2]); in the assay with Akt-pS473 in U87MG cells (setting [3]); in assay [1]) were 155 nM, 21 nM and 0.032 µM, respectively. Further, the “PI3Ka IC50” value at PI3Kα (p110α/p85α) is over 10 µM.
The matching figures for `CCNC(=O)Nc1ccc(-c2nc(N3CC4CCC(C3)O4)nc3c2C(=O)N(CC)CC(C)(C)O3)cc1F` [Example 110, 1-Ethyl-3-{4-[6-ethyl-8,8-dimethyl-2-(8-oxa-3-azabicyclo[3.2.1]oct-3-yl)-5-oxo-5,6,7,8-tetrahydro-9-oxa-1,3,6-triazabenzocyclohepten-4-yl]-2-fluorophenyl}urea]: 506 nM, 89 nM, 0.045 µM and over 10 µM.
